PMC8614864, “Bioengineered System for High Throughput Screening of Kv1 Ion Channel Blockers” (Bioengineering, 2021)
Where two headings read alike, the source gives them in different places.

Legend:
[1] = system: hybrid Kv1-KcsA channels expressed in the E. coli membrane; details: laser scanning confocal microscopy, competitive binding; cited from earlier work
Text: In order to estimate the possibilities and limitations of the assay, the molecular details of blocker interaction with a natural and chimeric channel should be considered. The common feature of the peptide blocker binding is an occlusion of the pore with the side chain of a lysine residue, which is accompanied by the formation of multiple bonds between the peptide and amino acid residues surrounding the pore. Since the pore occlusion is the essential feature of any Kv1-channel blocker interacting with a channel at the extracellular side, the binding sites of peptide blockers and sm ...

KcsA-Kv1.3-RFP [2] = test: Direct titration of GFP-labeled toxins on spheroplasts by flow cytometry; assay type: binding
Procedure: Spheroplasts were prepared according to the previously developed protocol. Briefly, E. coli cells (BL21 (DE3) strain) transformed with pET28a-KcsA-Kv1.3-RFP plasmid were cultivated in a minimal M9 medium at 37 °C up to OD560 = 0.8, then induced with 50 μM IPTG and further grown for 18 h. Cells were harvested by centrifugation (5000× g, 10 min, 4 °C), incubated in buffer A (10 mM Tris–HCl, pH 8.0, 0.5 m sucrose) containing lysozyme (20 μg/mL) for 7 min on ice, then diluted twofold with buffer B (10 mM Tris–HCl, pH 8.0, 0.3 mM ethylenediamine tetraacetic acid) and further incubated for 20 min. Then MgCl2 was added to a final concentration of 10 mM to stabilize the spheroplasts. Obtained in this way, the spheroplast suspension has OD560 of about 0.5 and was diluted for binding assay as described further.
For ligand binding analysis, a series of ligand dilutions were prepared in 12 × 75 mm flow cytometry test tubes. For this, 45 µL of toxin solution with a ten times higher concentration than the maximal concentration on titration curve was prepared. This solution was serially diluted with 3.16-fold step (13.9 µL of toxin solution + 30 µL buffer). These toxin dilutions were supplemented with 270 µL of spheroplast suspension at 10^6 cells/mL to give 300 µL final reaction mixtures. For analysis of displacement of GFP-labeled toxins by unlabeled toxins, spheroplast suspensions were supplemented with 1.1× concentration of GFP-labeled toxin before mixing with unlabeled toxin dilutions. All dilutions were made in a binding buffer: 0.25 M sucrose, […], 2 mM KCl, 50 mM NaCl, 10 mM MgCl2, 0.2% BSA and 50 mM Tris–HCl, pH 7.5.
To ensure equilibrium conditions, we analyzed samples after 90–120 min of incubation without removing toxins. Data acquisition was carried out with FC-500 flow cytometer (Beckman Coulter, Brea, CA, USA) using 488 nm excitation for both GFP and RFP and fluorescence detection with FL1 (505–545 nm) and FL3 (610–630 nm) channels for GFP and RFP, respectively. To minimize background fluorescence, samples were run at low speed that gave approx. 100–500 events/s. Events were triggered by side scatting (SSC) so that RFP-labeled cells constituted approx. 30% of events (Figure 2). Remaining events were also present in the samples of filtered binding buffer without cells, so were likely to be related to system noise (either electronic or optical) but not to the dim spheroplasts.
Automated data analysis was performed by a dedicated script after pre-processing with commercial software. The script was available in user-friendly Jupyter notebook format where data were processed stepwise, and user input-output was realized through an internet browser. This script is designed to process multiple datasets at once and can be easily adjusted for someone’s actual needs.
Initial preprocessing was done with used FlowJo v10 software (Treestar Inc., Wilmington, DE, USA). This was used for gating on cells by forward and side scatter, followed by gating of RFP-positive events (Figure 1) and exporting of gated data in FCS format. This step was preferable since it allowed one to convert data into a conventional FCS format (our flow cytometer import data in LMD file format) and to filter out off-target events such as system noise, cell debris, clumped and untransfected cells (without Kv1.3-RFP in our case). We also created a script for this preprocessing but found it more complicated and less robust than commercial software.
Filtered data were processed stepwise by a dedicated script, written in the Python programming language and available as a Jupyter notebook for running either on a local machine or in a kaggle data cloud (https://www.kaggle.com/georgesharonov/fcsgroupfit, accessed and executed on 14 November 2021). Data processing workflow was designed for high throughput analysis by processing all similar data in a single script execution. The processing steps were detailed within the notebook. […]

KcsA-Kv1.3-RFP [3] = test: as above; details: slope by linear fitting of reduced data (maximum of normal distribution along GFP axis); one-site binding curve; 90–120 min incubation, 50 mM Tris–HCl pH 7.5 binding buffer; Mean ± SD (SD from fit, single dataset)

Compound	competitive ligand for Kv1-KcsA hybrid channels [1]	Slope, nonspecific binding (KcsA-Kv1.3-RFP [2]; 1 nM labeled toxin + 316 nM ChTx, fitting of all events)	Slope, nonspecific binding (KcsA-Kv1.3-RFP [2]; 1 nM labeled toxin + 316 nM ChTx, fitting of reduced data)	Slope (proportional to occupied receptor fraction) (KcsA-Kv1.3-RFP [2]; 1 nM labeled toxin, fitting of all events)	Slope (proportional to occupied receptor fraction) (KcsA-Kv1.3-RFP [2]; 1 nM labeled toxin, fitting of reduced data)	Slope, nonspecific binding (KcsA-Kv1.3-RFP [2]; 10 nM labeled toxin + 316 nM ChTx, fitting of all events)	Slope, nonspecific binding (KcsA-Kv1.3-RFP [2]; 10 nM labeled toxin + 316 nM ChTx, fitting of reduced data)	Slope (proportional to occupied receptor fraction) (KcsA-Kv1.3-RFP [2]; 10 nM labeled toxin, fitting of all events)	Slope (proportional to occupied receptor fraction) (KcsA-Kv1.3-RFP [2]; 10 nM labeled toxin, fitting of reduced data)	Kd (KcsA-Kv1.3-RFP [2]; binding curve of direct titration, reduced data, nonspecific binding subtracted, flow cytometry, read-out: Kd (printed in Figure 4A))	Kd (KcsA-Kv1.3-RFP [3])
CC[N+](CC)(CC)CC [tetraethylammonium]	competitive ligand										
ChTx-GFP: hybrid protein, ChTx tagged N-terminally with eGFP, analogous to AgTx2-GFP; fluorescent probe		0.47	0.25	0.55	0.56	0.53	0.21	0.87	0.84	0.735 nM	0.74 ± 0.17 nM
